Experimental data as given in publication PMC9067978, “Design, synthesis, and molecular docking studies of novel pomalidomide-based PROTACs as potential anti-cancer agents targeting EGFR^WT and EGFR^T790M” (Journal of Enzyme Inhibition and Medicinal Chemistry, 2022).
Entries after “also recorded” stand apart in the source; their conditions may differ.

What was measured:
[1] = system: HepG-2; experiment: Annexin V/propidium iodide apoptosis assay, HepG-2; assay type: cell-based, human; settings: 3.02 µM, 24 hours
Protocol: The double staining Annexin V/propidium iodide technique was performed to assess the mechanism of cell death and apoptosis-inducing activity.[46] […] As shown in (Figure 7 (A and B).
The negative control was chosen to be DMSO. The cells were then collected and washed twice in PBS. The cells were separated using centrifugation. An apoptosis detection kit (BD Biosciences, SanJose, CA) was used in this investigation. Following the manufacturer’s instructions, the cells were dyed with Annexin V-FITC and propidium iodide (PI) in the binding buffer for 20 minutes at 37 °C in the darkness. A flow cytometer was used to assess the binding of Annexin V-FITC and PI. The frequencies in all quadrants were investigated using the Flowjo program.[53]

[2] = target: T1, EGFR (Homo sapiens, UniProt P00533); experiment: Western blotting, EGFR degradation in A549 cells; assay type: cell-based
T1 construct: EGFR degradation activities of compounds in A549 cells; endogenous in cells; host or cells: A549
T1 sequence (P00533 25-1210): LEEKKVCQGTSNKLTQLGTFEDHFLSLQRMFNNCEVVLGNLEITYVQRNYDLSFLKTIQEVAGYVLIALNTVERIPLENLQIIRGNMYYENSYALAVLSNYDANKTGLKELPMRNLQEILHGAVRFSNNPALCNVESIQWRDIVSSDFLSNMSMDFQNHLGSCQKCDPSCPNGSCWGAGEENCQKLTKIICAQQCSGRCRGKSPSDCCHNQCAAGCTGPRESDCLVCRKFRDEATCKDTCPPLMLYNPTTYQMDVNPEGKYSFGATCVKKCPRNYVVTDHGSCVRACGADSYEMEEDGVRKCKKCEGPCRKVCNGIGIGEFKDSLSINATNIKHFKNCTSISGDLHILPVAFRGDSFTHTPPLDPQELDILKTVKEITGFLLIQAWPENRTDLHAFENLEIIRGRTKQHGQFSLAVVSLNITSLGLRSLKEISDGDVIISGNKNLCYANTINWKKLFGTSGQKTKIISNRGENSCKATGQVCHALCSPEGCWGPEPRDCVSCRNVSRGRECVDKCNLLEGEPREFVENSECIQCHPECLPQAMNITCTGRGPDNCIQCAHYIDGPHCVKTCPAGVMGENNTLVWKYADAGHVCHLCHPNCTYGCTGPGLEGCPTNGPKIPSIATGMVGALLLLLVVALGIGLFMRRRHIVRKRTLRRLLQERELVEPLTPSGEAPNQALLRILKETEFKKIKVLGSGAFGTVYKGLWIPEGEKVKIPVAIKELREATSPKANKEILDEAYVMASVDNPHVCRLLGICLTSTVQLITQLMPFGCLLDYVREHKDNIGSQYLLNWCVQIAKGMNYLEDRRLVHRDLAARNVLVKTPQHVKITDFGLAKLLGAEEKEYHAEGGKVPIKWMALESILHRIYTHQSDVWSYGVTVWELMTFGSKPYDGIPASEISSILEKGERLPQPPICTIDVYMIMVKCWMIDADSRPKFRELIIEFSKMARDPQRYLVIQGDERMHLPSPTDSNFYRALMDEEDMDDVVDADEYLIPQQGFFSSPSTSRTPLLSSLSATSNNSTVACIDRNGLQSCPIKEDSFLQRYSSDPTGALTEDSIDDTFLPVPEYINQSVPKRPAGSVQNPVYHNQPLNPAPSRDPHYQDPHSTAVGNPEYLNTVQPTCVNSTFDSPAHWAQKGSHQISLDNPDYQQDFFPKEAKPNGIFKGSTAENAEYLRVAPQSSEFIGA
Protocol: Following this, the target compounds 15–21 tethering various E3 ligases ligand were chosen as representative PROTACs for further degradation study based on temporal data.
Figure 4. (A) EGFR degradation activities of compounds in A549 cells. Cells were treated for 48 h with concentration of 0.1 and 1 µM. (B) Effects of concentration-dependent EGFR degradation by compounds 15–21 in A549 cell lines. Cells were treated for 48 h with a concentration from 1 nM to 10 µM. EGFR protein was examined by Western blotting analysis and EGFR degradation rate was quantified by densitometry and normalised to the corresponding density of β-actin protein (n ¼ 3). TEXT PRINTED IN THE PICTURE: (B) Comp 15: DC50 = 43.4 nm | (B) Comp 16: DC50= 32.9 nm DOUBTS OF THE COPYIST ABOUT THIS PICTURE: Comp 15, DC50: 43.4 is small blurred print; the 3 could be 8 and the digits are not certain / Comp 16, DC50: 32.9 is small blurred print; the 3 could be 8 and the 9 could be 8 or 0
We set nine concentration gradients ranging from […] to 10 µM to determine the degradation activity of all tested compounds and calculated the DC50 (concentration that caused deletion of 50% of EGFR) values.
(§1) At a concentration of 100 nM, the time-dependent degradation activities of compounds 15–21 were also examined (Figure 5(A)).
Figure 5. (A) EGFR time-dependent degradation by compound 16 in A549 cell lines. Cells were treated with100 nM of 15–21 for indicated time points. Western blotting was used to evaluate EGFR protein, and densitometry was used to measure EGFR degradation, which was adjusted to the density of β-actin protein (n ¼2). (B) Compounds 15 and 16 have EGFR degradation and phosphorylation inhibitory action in A549 cells. The cells were exposed to concentrations of 0.1, 0.3, and 1 µM. Erlotinib were utilised for comparison. TEXT PRINTED IN THE PICTURE: (A) Comp 15: Dmax = 85 % @ 96 h; Degradation: 9 (4 h; 100 nM); Degradation: 22 (8 h; 100 nM); Degradation: 42 (12 h; 100 nM); Degradation: 83 (24 h; 100 nM); Degradation: 84 (36 h; 100 nM); Degradation: 82 (48 h; 100 nM); Degradation: 82 (72 h; 100 nM); Degradation: 85 (96 h; 100 nM) | (A) Comp 16: Dmax = 96 % @72 h; Degradation: 32 (4 h; 100 nM); Degradation: 43 (8 h; 100 nM); Degradation: 67 (12 h; 100 nM); Degradation: 69 (24 h; 100 nM); Degradation: 78 (36 h; 100 nM); Degradation: 85 (48 h; 100 nM); Degradation: 96 (72 h; 100 nM); Degradation: 94 (96 h; 100 nM) DOUBTS OF THE COPYIST ABOUT THIS PICTURE: Comp 15, Dmax: print is blurred, 85 % @ 96 h is the best reading (85 or 86) / Comp 16, Dmax: print is small and blurred, 96 % @72 h is the best reading (96 or 95; the % sign is unclear) / Comp 15, Degradation row: print is blurred, 83/84/82/82/85 are best readings (3, 5, 8 are hard to tell apart) / Comp 16, Degradation row: print is blurred, 67/69/78/85/96/94 are best readings (5, 6, 8, 9 are hard to tell apart) / The Degradation rows are printed under the blot lanes with no unit. The value 0 under the 0.1 % DMSO control lane was not assigned to any compound.
Cells were seeded in 6-well plates at 1 × 10^6 per well, incubated at 37 °C with 5% CO2 for 24 h before drug exposure. Cells were treated with different concentrations of synthesised compounds for […], then collected and suspended in lysis buffer (Beyotime) and centrifuged for 20 min at 12000 rpm, later removed the insoluble material. […] The results were detected by an enhanced chemiluminescence system (Mill-pore). […]

[3] = system: HCT-116; experiment: DNA-flow cytometric cell cycle analysis, HCT-116; assay type: cell-based, human; settings: 3.32 µM, 24 hours
Protocol: Then, the influence of compound 16 on the cell cycle profile was then investigated.
The cells that had been tested were then trypsinized and washed in sterilised phosphate buffer saline (PBS). The collected cells were fixed with cold ethanol (100%, 1.5 ml). According to the manufacturer’s instructions, a Cycle TESTTM PLUS DNA Reagent Kit was used to dye the cells (BD Biosciences, San Jose, CA). A flow cytometer was used to assess cell-cycle distribution.[52]

[4] = system: A549; experiment: MTT anti-proliferative assay, A549
Protocol: (§2) The anti-proliferative activity was quantified in the following way. At a density of 3–8 × 10^3 cells per well, human cancer cell lines were introduced to 96-well plates. The wells were then incubated at 37 °C for 12 hours in 5% CO2 incubator. To determine the DMSO content, the culture media was swapped with 0.1 ml of fresh medium containing graded amounts of the test compounds for each well. Incubation time for the wells was two days. The cells were then cultured in 100 µl MTT solution (5 µg ml^−1) for another 4 hours in each well.
(§3) The absorbance of each well was measured at 490 nm with an automated ELISA reader system (TECAN, CHE) after MTT-formazan crystals were dissolved in 100 µl of DMSO. The IC50 values were calculated using nonlinear regression fitting models (Graph Pad, Prism Version 5). The results were expressed as means ± SD and were based on the average of three separate, duplicate trials.

[5] = system: HepG-2; experiment: MTT anti-proliferative assay, HepG-2
Protocol: as §2, §3

[6] = system: Akt phosphorylation; experiment: Western blotting, Akt phosphorylation in A549 cells; assay type: cell-based, human; settings: A549 cells, 0.1, 0.3 and 1 µM, erlotinib for comparison
Protocol: as §1
Figure 5. (A) EGFR time-dependent degradation by compound 16 in A549 cell lines. Cells were treated with100 nM of 15–21 for indicated time points. Western blotting was used to evaluate EGFR protein, and densitometry was used to measure EGFR degradation, which was adjusted to the density of β-actin protein (n ¼2). (B) Compounds 15 and 16 have EGFR degradation and phosphorylation inhibitory action in A549 cells. The cells were exposed to concentrations of 0.1, 0.3, and 1 µM. Erlotinib were utilised for comparison. […]
Cells were seeded in 6-well plates at 1 × 10^6 per well, incubated at 37 °C with 5% CO2 for 24 h before drug exposure. […] The results were detected by an enhanced chemiluminescence system (Mill-pore). […]

[7] = ratio of cytotoxic IC50 to erlotinib

Dmax at 0.1 µM ([2]; A549, A549 cells, 100 nM, time course, reached at 96 h (15) and 72 h (16), read-out: Dmax, maximum EGFR degradation rate): 96%
DC50 ([2]; A549 cells, 48 h, Western blotting densitometry, read-out: DC50 (concentration that caused deletion of 50% of EGFR)): 32.9 nM
concentration-dependent EGFR degradation, in words ([2]; A549 cells, 48 h, concentration series up to 10 µM): hook effect
IC50 ([4]; Homo sapiens, A549, read-out: IC50 A549): 2690 ± 90 nM
SMILES: Cn1c(=O)c(C(=O)NNCCOCCOCC(=O)Nc2cccc3c2C(=O)N(C2CCC(=O)NC2=O)C3=O)nc2ccccc21 (stereo not shown) [Compound 16, N-(2-(2,6-dioxopiperidin-3-yl)-1,3-dioxoisoindolin-4-yl)-2-(2-(2-(2-(4-methyl-3-oxo-3,4-dihydroquinoxaline-2-carbonyl) hydrazinyl)ethoxy)ethoxy) acetamide]
cellular apoptosis, early and late, folds vs control, HepG-2 [1]: ~13 folds
early apoptosis ratio, HepG-2 [1]: 7.55%
late apoptosis ratio, HepG-2 [1]: 5.53%
fold increase of cells in G2-M phase vs control, HCT-116 [3]: 1.49 fold
fold increase of cells in pre-G1 phase vs control, HCT-116 [3]: 5.37 fold
folds more active than erlotinib, A549 [4, 7]: 7.18 folds
IC50 ([5]; Homo sapiens, HepG2, read-out: IC50 HepG-2): 3020 ± 120 nM
folds more active than erlotinib, HepG-2 [5, 7]: 4.34 folds
inhibition of Akt phosphorylation, in words [6]: effectively displayed inhibitory activity; also recorded: comparable to erlotinib
